Results as given in paper PMC7213079, “Hit Identification of New Potent PqsR Antagonists as Inhibitors of Quorum Sensing in Planktonic and Biofilm Grown Pseudomonas aeruginosa” (Frontiers in Chemistry, 2020).

Tests used:
Format in all cases: cell-based, Pseudomonas aeruginosa
PAO1-L mCTX::PpqsA-lux = experiment: PpqsA-lux bioreporter assay, strain PAO1-L; settings: for IC50 / activity at 10 µM: Pseudomonas aeruginosa; for IC50: PAO1, read-out: IC50 PAO1-L; for activity at 10 µM: PAO1, read-out: Remaining Activity % (RA%) at 10 μM PAO1-L; for IC50 PAO1-L: n = 9, NA = not active at 10 μM
Procedure: In silico virtual screening was performed on the PqsR ligand binding domain (LBD) crystal structure [PDB: 4JVI; (Ilangovan et al., [2013])] using the University of Nottingham Managed Chemical Compound Collection (MCCC) containing 85,061 compounds. Molecular docking was performed using both the OpenEye docking (OpenEye Scientific Software Inc. (Hawkins et al., [2007]) and Schrödinger Suite for molecular modeling (Friesner et al., [2004]; Halgren et al., [2004]). A cut off value of the docking score function was set to -9.0 and the resulting high scoring compounds were further examined (Friesner et al., [2004]; Halgren et al., [2004]). This gave a library of around 500 diverse molecules that were evaluated using in vitro screening in a P. aeruginosa PAO1-L mCTX::PPqsA-lux reporter assay (Diggle et al., [2011]).
(§1) To inform the structural variation of 7, crystal structures with the endogenous ligand [4-hydroxy-2-heptylquinoline (NHQ)] and the inhibitor M64 were used (Ilangovan et al., [2013]; Kitao et al., [2018]). The PqsR LBD is dominated by lipophilic interactions, therefore the current SAR exploration mainly focused on varying the aromatic tail substituents and examining the effect of 8-position substitution. The rationale for these modifications was primarily based on molecular docking studies that provided insights into the mode of binding of 7 and approaches intended to improve potency. The substituent at the para- position of the aromatic ring appeared to be crucial for biological activity due to the vital π-π stacking interaction of this group with Tyr^258. […] These strains emit light upon activation of PqsR by the endogenous production of these signal molecules. […] The results of the SAR in this assay highlight the importance of testing any prospective anti-virulence strategy on multiple genetically distinct P. aeruginosa strains as a means to reduce the chance of failure at both pre-clinical and clinical stages (Freschi et al., [2015]).
(§2) PAO1-L Wild type PAO1, Lausanne subline. B.
PAO1-L mCTX::PpqsA- PAO1-L with chromosomal mini-CTX::PpqsA-lux (Soukarieh lux insertion; TcR et al., 2018) […]
(§3) mini-CTX::PpqsA-lux R6K-based mini-CTX suicide plasmid for the (Diggle et chromosomal insertion of a PpqsA-lux al., 2007) transcriptional reporter fusion; TcR
(§4) Biosensor reporter assay:
(§5) Strains PA14 mCTX::PpqsA-lux and PAO1-L mCTX::PpqsA-lux were constructed using plasmid mini-CTX::PpqsA-lux as previously described (Diggle et al., 2007) and the assay was performed according to published procedures (Fletcher et al., 2007). For screening, the compounds were tested at 10 µM concentration which was prepared from 10 mM stock in DMSO. […]

PA14 mCTX::PpqsA-lux = experiment: PpqsA-lux bioreporter assay, strain PA14; settings: for IC50 PA14: PpqsA-lux bioreporter, n = 9, NA = not active at 10 μM; for IC50: Pseudomonas aeruginosa, PA14, read-out: IC50 PA14
Source text: as §1, with “[2015]). […]” for “[2015]).”
(§6) PA14 mCTX::PpqsA-lux PA14 with chromosomal mini-CTX::PpqsA-lux (Soukarieh insertion; TcR et al., 2018) […]
as §3, §4, §5

PA14 = experiment: Pyocyanin quantification, PA14; settings: PA14, compound at 3 x IC50, 16 h, compared with the control
Source text: Pyocyanin is an important virulence factor for P. aeruginosa infections and in particular respiratory and urinary tract infections. Pyocyanin is a redox-active phenazine the production of which is regulated via PqsR and PqsE (Hall et al., [2016]; Rampioni et al., [2016]; Higgins et al., [2018]). Therefore, pyocyanin production serves as an indirect readout of the activity of the pqs QS system. […] Compound 40 reduced pyocyanin production by over 80% in both strains in agreement with bioreporter assay results.
Figure 4 Pyocyanin production by Pseudomonas aeruginosa after treatment with pqs inhibitors 8, 14, 23, 34, 25, 26, and 40. Quantification of pyocyanin production after inhibitor treatment at 3 × IC50 for both PAO1-L and PA14. The graph represents the average of three independent experiments carried out in triplicate (n = 9).
as §2
PAO1-L mCTX::PpqsA- PAO1-L with chromosomal mini-CTX::PpqsA-lux (Soukarieh lux insertion; TcR et al., 2018)
PA14 Wild type UCBPP-PA14 (Rahme et
as §6
Pyocyanin quantification: […]
Pyocyanin pigment was extracted into chloroform by mixing 7.5 mL of supernatant with 4.5 mL of chloroform. Pyocyanin w as further extracted into 1.5 mL of 0.2 M HCL which gave a pink/red solution and the absorbance was measured at 520 nm.

Row | SMILES | IC50 (PAO1-L mCTX::PpqsA-lux) | IC50 PA14 (PA14 mCTX::PpqsA-lux) | IC50 (PA14 mCTX::PpqsA-lux) | other results
1 | Cn1c2ccc(Br)cc2c2nnc(SCC(=O)Nc3ccc(Br)cc3)nc21 [Compound 27, 2-((8-Bromo-5-methyl-5H-[1,2,4]triazino[5,6-b]indol-3-yl)thio)-N-(4-bromophenyl)acetamide] | 23000 ± 9000 nM | inactivity | – | –
2 | Cn1c2ccccc2c2nnc(SCC(=O)Nc3ccc(Oc4ncccn4)cc3)nc21 [Compound 28, 2-((5-Methyl-5H-[1,2,4]triazino[5,6-b]indol-3-yl)thio)-N-(4-(pyrimidin-2yloxy)phenyl)acetamide] | 1040 ± 120 nM | – | 1330 ± 330 nM | –
3 | Cn1c2ccc(Br)cc2c2nnc(SCC(=O)Nc3ccc(OC(F)(F)F)cc3)nc21 [Compound 22, 2-((8-Bromo-5-methyl-5H-[1,2,4]triazino[5,6-b]indol-3-yl)thio)-N-(4-(trifluoromethoxy)phenyl)acetamide] | – | – | – | activity at 10 µM (PAO1-L mCTX::PpqsA-lux): 23%
4 | O=C(CSc1nc2cc([N+](=O)[O-])ccc2[nH]1)Nc1ccc(Oc2ccccc2)cc1 [Compound M64, reference compound] | 320 ± 140 nM | – | 1220 ± 340 nM | –
5 | Cn1c2ccccc2c2nnc(SCC(=O)Nc3ccc(CC#N)cc3)nc21 [Compound 23, N-(4-(Cyanomethyl)phenyl)-2-((5-methyl-5H-[1,2,4]triazino[5,6-b]indol-3-yl)thio)acetamide] | 620 ± 100 nM | – | 2000 ± 170 nM | inhibition of pyocyanin production (PA14): most potent inhibitor
6 | Cn1c2ccc(Br)cc2c2nnc(SCC(=O)Nc3ccc(Cl)c(Cl)c3)nc21 [Compound 14, 2-((8-Bromo-5-methyl-5H-[1,2,4]triazino[5,6-b]indol-3-yl)thio)-N-(3,4-dichlorophenyl)acetamide] | 3100 ± 520 nM | – | 7580 ± 820 nM | –
7 | Cn1c2ccccc2c2nnc(SCC(=O)Nc3ccc(Cl)cc3)nc21 [Compound 7, N-(4-Chlorophenyl)-2-((5-methyl-5H-[1,2,4]triazino[5,6-b]indol-3-yl)thio)acetamide] | 980 ± 20 nM | inactive | – | –
8 | Cn1c2ccc(Br)cc2c2nnc(SCC(=O)Nc3ccc(F)cc3)nc21 [Compound 16, 2-((8-Bromo-5-methyl-5H-[1,2,4]triazino[5,6-b]indol-3-yl)thio)-N-(4-fluorophenyl)acetamide] | 1360 ± 210 nM | – | – | –
9 | Cc1ccc(NC(=O)CSc2nnc3c4ccccc4n(C)c3n2)cc1 [Compound 17, 2-((5-Methyl-5H-[1,2,4]triazino[5,6-b]indol-3-yl)thio)-N-(p-tolyl)acetamide] | 1860 ± 10 nM | – | – | –
10 | Cn1c2ccccc2c2nnc(SCC(=O)Nc3ccc(Br)cc3)nc21 [Compound 26, N-(4-Bromophenyl)-2-((5-methyl-5H-[1,2,4]triazino[5,6-b]indol-3-yl)thio)acetamide] | 1710 ± 260 nM | – | 1350 ± 190 nM | –
11 | Cn1c2ccccc2c2nnc(SCC(=O)Nc3cccc(Cl)c3)nc21 [Compound 11, N-(3-Chlorophenyl)-2-((5-methyl-5H-[1,2,4]triazino[5,6-b]indol-3-yl)thio)acetamide] | – | inactive | – | activity at 10 µM (PAO1-L mCTX::PpqsA-lux): 34%
12 | Cn1c2ccc(Br)cc2c2nnc(SCC(=O)Nc3ccc(Oc4ccccc4)cc3)nc21 [Compound 25, 2-((8-Bromo-5-methyl-5H-[1,2,4]triazino[5,6-b]indol-3-yl)thio)-N-(4-phenoxyphenyl)acetamide] | 4360 ± 420 nM | – | – | –
13 | Cn1c2ccc(Br)cc2c2nnc(SCC(=O)Nc3ccccc3Cl)nc21 [Compound 39, 2-((8-Bromo-5-methyl-5H-[1,2,4]triazino[5,6-b]indol-3-yl)thio)-N-(2-chlorophenyl)acetamide] | – | inactive | – | IC50 PAO1-L (PAO1-L mCTX::PpqsA-lux; PpqsA-lux bioreporter): inactive
14 | Cn1c2ccc(Br)cc2c2nnc(SCC(=O)Nc3cccc(Cl)c3)nc21 [Compound 12, 2-((8-Bromo-5-methyl-5H-[1,2,4]triazino[5,6-b]indol-3-yl)thio)-N-(3-chlorophenyl)acetamide] | – | inactive | – | activity at 10 µM (PAO1-L mCTX::PpqsA-lux): 43%
15 | Cn1c2ccccc2c2nnc(SCC(=O)Nc3ccc(OC(F)(F)F)cc3)nc21 [Compound 21, 2-((5-Methyl-5H-[1,2,4]triazino[5,6-b]indol-3-yl)thio)-N-(4(trifluoromethoxy)phenyl)acetamide] | – | – | – | activity at 10 µM (PAO1-L mCTX::PpqsA-lux): 29%
16 | Cn1c2ccc(Br)cc2c2nnc(SCC(=O)Nc3ccc(Cl)cc3)nc21 [Compound 8, 2-((8-Bromo-5-methyl-5H-[1,2,4]triazino[5,6-b]indol-3-yl)thio)-N-(4-chlorophenyl)acetamide] | 1990 ± 230 nM | – | 1600 ± 160 nM | –
17 | Cn1c2ccccc2c2nnc(SCC(=O)Nc3ccc(Oc4ccccc4)cc3)nc21 [Compound 24, 2-((5-Methyl-5H-[1,2,4]triazino[5,6-b]indol-3-yl)thio)-N-(4-phenoxyphenyl)acetamide] | 380 ± 60 nM | – | 350 ± 60 nM | fold higher activity in PAO1-L compared to 7 (PAO1-L mCTX::PpqsA-lux; PpqsA-lux bioreporter): ~2.5 fold
18 | Cn1c2ccccc2c2nnc(SCC(=O)Nc3ccccc3Cl)nc21 [Compound 38, N-(2-Chlorophenyl)-2-((5-methyl-5H-[1,2,4]triazino[5,6-b]indol-3-yl)thio)acetamide] | – | inactive | – | IC50 PAO1-L (PAO1-L mCTX::PpqsA-lux; PpqsA-lux bioreporter): inactive
19 | Cc1ccc(NC(=O)CSc2nnc3c4cc(Br)ccc4n(C)c3n2)cc1 [Compound 18, 2-((8-Bromo-5-methyl-5H-[1,2,4]triazino[5,6-b]indol-3-yl)thio)-N-(p-tolyl)acetamide] | – | – | – | activity at 10 µM (PAO1-L mCTX::PpqsA-lux): 32%
